According to US11982675B2, “Method of assessing ABC transporter activity using fluorescent dye accumulation assay” (CELLPHARMA KFT., priority 2017, dated 2024):
Substitutions are numbered along the chain they refer to. One block for each molecule: values may come before it.

Experiments:
Assay type in all cases: cell-based
ABCG2 [1] = molecular target: T1, ABCG2 (Homo sapiens, UniProt Q9UNQ0); assay: Mitoxantrone (MX) accumulation by flow cytometry, ABCG2-expressing PLB and A431 cells; parameters: expressed in transfected cells; host or cells: PLB-985 and A431 cells (retroviral transduction); conditions: control and ABCG2 expressing PLB and A431 cells, 1 μM MX, 60 minutes
T1 sequence (Q9UNQ0 1-655): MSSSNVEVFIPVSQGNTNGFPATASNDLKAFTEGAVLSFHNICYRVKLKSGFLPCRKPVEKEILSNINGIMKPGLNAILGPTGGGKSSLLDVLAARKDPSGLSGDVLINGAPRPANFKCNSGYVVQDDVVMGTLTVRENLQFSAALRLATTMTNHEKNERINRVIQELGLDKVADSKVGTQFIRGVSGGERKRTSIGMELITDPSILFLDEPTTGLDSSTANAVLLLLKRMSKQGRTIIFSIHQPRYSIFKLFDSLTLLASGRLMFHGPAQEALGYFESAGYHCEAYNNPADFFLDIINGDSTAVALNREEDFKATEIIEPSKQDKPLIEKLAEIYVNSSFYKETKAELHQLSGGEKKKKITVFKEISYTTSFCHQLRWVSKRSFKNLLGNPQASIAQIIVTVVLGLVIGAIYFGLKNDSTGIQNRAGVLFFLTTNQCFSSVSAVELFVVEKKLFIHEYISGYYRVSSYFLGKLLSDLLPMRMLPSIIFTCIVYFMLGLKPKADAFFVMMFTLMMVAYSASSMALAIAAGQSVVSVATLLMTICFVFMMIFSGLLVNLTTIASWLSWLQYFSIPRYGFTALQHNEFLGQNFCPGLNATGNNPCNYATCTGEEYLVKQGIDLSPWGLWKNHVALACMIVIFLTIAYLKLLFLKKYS

ABCB1 = molecular target: T2, ABCB1 (Homo sapiens, UniProt P08183); assay: PhenGreen (PG) accumulation by flow cytometry, ABCB1-expressing PLB and A431 cells
T2 construct: expressed in transfected cells; host or cells: PLB-985 and A431 cells (retroviral transduction)
Procedure: (§1) In order to follow the time-dependent accumulation of PG, 5×10^5 cells were washed twice with 1 mL DPBS (1 g/L D-glucose with phosphate buffered saline), then pre-incubated in the uptake buffer (1 mM EDTA in DPBS) for 10 minutes at 37° C. Thereafter the cells were incubated in the uptake buffer with various concentrations of PhenGreen SK diacetate (PGD), with or without transporter inhibitor, at 37° C., for 1-60 minutes. Dye uptake was stopped by the addition of 150 μl ice-cold EDTA-DPBS, the cells were kept on ice until the measurements (see FIG. 12.). […]
(§2) The cells (5×10^5) were incubated with 0.5 μM PGD or 1 μM (Mx) with or without inhibitors, for 30 (PGD) or 60 (Mx) minutes at 37° C. The reaction was stopped by the addition of ice-cold EDTA-DPBS and fluorescence was measured as described above.
(§3) All experiments were performed at least three times. […] Results were expressed as median±standard deviation. The MDR activity factor % (MAF %—see refs [Homolya L et al. Br J Cancer. 1996; Holló Z et al. Anticancer Res. 1998; 18: 2981-7., Sarkadi et al. U.S. Pat. No. 5,872,014 1999]) was calculated as follows: MAF %=(((MFIinh−MFI0)/MFIinh)×100), wherein MFIinh and MFI0 are the median fluorescence intensity (MFI) with (inh) or without (0) inhibitor. […]

PLB, HEK or A431 cells = assay: Cell viability assay after PGD loading; conditions: PGD loading 30 min at 37° C.; PLB cells counted for 9 days, HEK or A431 cells cultured 72 hours
Procedure: Control and ABCG2 expressing PLB-985 cells (1×10^6) were pre-incubated in the uptake buffer for 10 minutes at 37° C., then incubated with or without 0.5 μM PGD for 30 minutes at 37° C. The PGD-treated cells were sorted based on PG fluorescence by FACS Aria III Cell sorter (BD Bioscience, San Jose, CA, with 488 nm blue laser excitation and 530/30 nm emission). The sorted cells were suspended in 3 mL RMPI media in 6 well plates and live cell number was measured each day, dead cells were excluded by TO-PRO™-3 Iodide.
In order to estimate the EC50 values, HEK or A431 cells were treated with […] for 30 min at 37° C. in the EDTA-DPBS buffer, then washed and cultured in 2 mL DMEM media in 12 well plates for 72 hours. […]
In the first set of these experiments (FIG. 7, Panel A) we used control and ABCG2 expressing PLB cells, incubated in the PGD loading media with or without 0.5 μM PGD for 30 minutes at 37° C. The PGD-treated cells were then sorted based on PG fluorescence by flow cytometry, and the cells were resuspended in RPMI media. […]
In the second set of experiments HEK or A431 cells were treated with the indicated concentrations of PGD for 30 min at 37° C. in the loading media, then washed and cultured in normal cell culturing media for 72 hours. Live cell number was determined by flow cytometry, dead cells excluded by TO-PRO-3 staining (see Methods). […]

ABCG2 [2] = molecular target: T1, ABCG2; assay: PhenGreen (PG) accumulation by flow cytometry, ABCG2-expressing PLB and A431 cells; parameters: expressed in transfected cells; host or cells: PLB-985 and A431 cells (retroviral transduction)
Procedure: In order to follow the time-dependent accumulation of PG, 5×10^5 cells were washed twice with 1 mL DPBS (1 g/L D-glucose with phosphate buffered saline), then pre-incubated in the uptake buffer (1 mM EDTA in DPBS) for 10 minutes at 37° C. Thereafter the cells were incubated in the uptake buffer with various concentrations of PhenGreen SK diacetate (PGD), with or without transporter inhibitor, at 37° C., for 1-60 minutes. Dye uptake was stopped by the addition of 150 μl ice-cold EDTA-DPBS, the cells were kept on ice until the measurements (see FIG. 12.). For assessing the PGD concentration dependence of PG accumulation, 5×10^5 PLB-985 or A431 cells, expressing the ABCB1 or ABCG2 transporters, or HL-60 and HEK-293 cells, expressing ABCC1, were washed twice with 1 mL DPBS, then pre-incubated in EDTA-DPBS medium for 10 minutes at room temperature. The cells were incubated in EDTA-DPBS with 0.1-5 μM of PGD at 37° C. for 30 minutes. Dye uptake was stopped by the addition of 150 μl ice-cold EDTA-DPBS. The cells were kept on ice until the measurement.
as §2
All experiments were performed at least three times. Data analysis was performed using FACSDiva v6.1.3 Software (BD Bioscience, San Jose, CA), flow cytometry figures were prepared with the Attune Acoustic Focusing Cytometer v1.25 Software (Applied Biosystems, Life Technologies, Carlsbad, CA, USA). Results were expressed as median±standard deviation. The MDR activity factor % (MAF %—see refs [Homolya L et al. Br J Cancer. 1996; Holló Z et al. Anticancer Res. 1998; 18: 2981-7., Sarkadi et al. U.S. Pat. No. 5,872,014 1999]) was calculated as follows: MAF %=(((MFIinh−MFI0)/MFIinh)×100), wherein MFIinh and MFI0 are the median fluorescence intensity (MFI) with (inh) or without (0) inhibitor. The EC50 analysis was carried out using the Origin 8.6. software.

ABCC1 = molecular target: T3, ABCC1 (Homo sapiens, UniProt P33527); assay: PhenGreen (PG) accumulation by flow cytometry, ABCC1-expressing HL-60 and HEK cells
T3 construct: expressed in transfected cells; host or cells: HL-60 and HEK-293 cells (retroviral transduction)
Procedure: as §1, §2, §3

[3] = test system: human peripheral blood mononuclear cells (PBMCs); assay: Functional test of ABCG2, ABCB1 or ABCC1 transporter function in PBMCs
Procedure: Freshly drawn venous blood samples were collected from healthy donors into EDTA coated tubes. Peripheral blood mononuclear cells (PBMCs) were isolated by Ficoll-histopaque density gradient centrifugation. The PBMCs were washed twice with 1 mL EDTA-DPBS uptake buffer (1 mM EDTA and 1 g/L D-glucose with phosphate buffered saline). The various cell populations can be stained with cluster of differentiation markers (CD markers), conjugated by e.g. APC, APC-Cy7, Pacific blue, or other fluorescent marker. After CD labeling the cells were incubated in the uptake buffer with 1 μM PhenGreen SK diacetate (PGD), or 0.25 μM Calcein-AM (CaAM) or 1 μM mitoxantrone (Mx), with or without selective transporter inhibitors, for 30 minutes (PGD and CaAM) or 60 minutes (Mx) at 37° C. […] The reaction was stopped by the addition of ice-cold EDTA-DPBS and fluorescence was measured as described above.
[…] cell populations, i.e. granulocytes, monocytes and lymphocytes have been visualized by flow cytometry as described in the Materials and Methods chapter (Panel A). […] MDR activity factors were calculated as described above based on the measurements of the accumulation of the three fluorescent dyes, with or without inhibitors, in the respective leukocyte populations (Panel C).

ABCG2 [4] = molecular target: T4, ABCG2 (Homo sapiens, UniProt Q9UNQ0, K86M); assay: PhenGreen (PG) accumulation by flow cytometry, ABCG2-expressing PLB and A431 cells; conditions: PLB cells expressing ABCG2-K86M
T4 construct: expressed in transfected cells; host or cells: PLB-985 and A431 cells (retroviral transduction)
T4 sequence (Q9UNQ0 1-655 K86M): T1 sequence (Q9UNQ0 1-655) with K86M
Procedure: as §1, §2, §3

ABCG2 [5] = molecular target: T1, ABCG2; assay: PG accumulation examined by confocal microscopy in PLB and PLB-ABCG2 cells; parameters: expressed in transfected cells; host or cells: PLB-985 cells (retroviral transduction); conditions: PLB-ABCG2 cells, 0.5 μM PGD, 30 minutes, no inhibitor
Procedure: For confocal microscopy the cells (5×10^5) were washed twice with 1 mL DPBS, then pre-incubated with 1 μg/mL Alexa Fluor-647 conjugated wheat-germ agglutinin (WGA-A647) in uptake buffer for 5 minutes at room temperature. Thereafter the cells were incubated with 0.5 μM PGD with or without transporter inhibitors for 30 minutes at 37° C. PGD uptake was stopped by washing the cells with 1 mL DPBS. The images were acquired by a Zeiss LSCM 710 microscope using a 63×NA=1.4 Plan Apo objective. Images were captured and analyzed by Zen2 (Blue edition) Software.
In order to examine the wider applicability of the PGD-based assay for functional ABCG2 transporter studies, we examined PG accumulation in control PLB cells and in PLB cells expressing ABCG2, by using fluorescence (confocal) microscopy.
In these experiments, in order to label the plasma membrane compartment of the cells, we also included the staining of live PLB cells with a fluorescent anti-WGA antibody.

T3 sequence (P33527 whole entry): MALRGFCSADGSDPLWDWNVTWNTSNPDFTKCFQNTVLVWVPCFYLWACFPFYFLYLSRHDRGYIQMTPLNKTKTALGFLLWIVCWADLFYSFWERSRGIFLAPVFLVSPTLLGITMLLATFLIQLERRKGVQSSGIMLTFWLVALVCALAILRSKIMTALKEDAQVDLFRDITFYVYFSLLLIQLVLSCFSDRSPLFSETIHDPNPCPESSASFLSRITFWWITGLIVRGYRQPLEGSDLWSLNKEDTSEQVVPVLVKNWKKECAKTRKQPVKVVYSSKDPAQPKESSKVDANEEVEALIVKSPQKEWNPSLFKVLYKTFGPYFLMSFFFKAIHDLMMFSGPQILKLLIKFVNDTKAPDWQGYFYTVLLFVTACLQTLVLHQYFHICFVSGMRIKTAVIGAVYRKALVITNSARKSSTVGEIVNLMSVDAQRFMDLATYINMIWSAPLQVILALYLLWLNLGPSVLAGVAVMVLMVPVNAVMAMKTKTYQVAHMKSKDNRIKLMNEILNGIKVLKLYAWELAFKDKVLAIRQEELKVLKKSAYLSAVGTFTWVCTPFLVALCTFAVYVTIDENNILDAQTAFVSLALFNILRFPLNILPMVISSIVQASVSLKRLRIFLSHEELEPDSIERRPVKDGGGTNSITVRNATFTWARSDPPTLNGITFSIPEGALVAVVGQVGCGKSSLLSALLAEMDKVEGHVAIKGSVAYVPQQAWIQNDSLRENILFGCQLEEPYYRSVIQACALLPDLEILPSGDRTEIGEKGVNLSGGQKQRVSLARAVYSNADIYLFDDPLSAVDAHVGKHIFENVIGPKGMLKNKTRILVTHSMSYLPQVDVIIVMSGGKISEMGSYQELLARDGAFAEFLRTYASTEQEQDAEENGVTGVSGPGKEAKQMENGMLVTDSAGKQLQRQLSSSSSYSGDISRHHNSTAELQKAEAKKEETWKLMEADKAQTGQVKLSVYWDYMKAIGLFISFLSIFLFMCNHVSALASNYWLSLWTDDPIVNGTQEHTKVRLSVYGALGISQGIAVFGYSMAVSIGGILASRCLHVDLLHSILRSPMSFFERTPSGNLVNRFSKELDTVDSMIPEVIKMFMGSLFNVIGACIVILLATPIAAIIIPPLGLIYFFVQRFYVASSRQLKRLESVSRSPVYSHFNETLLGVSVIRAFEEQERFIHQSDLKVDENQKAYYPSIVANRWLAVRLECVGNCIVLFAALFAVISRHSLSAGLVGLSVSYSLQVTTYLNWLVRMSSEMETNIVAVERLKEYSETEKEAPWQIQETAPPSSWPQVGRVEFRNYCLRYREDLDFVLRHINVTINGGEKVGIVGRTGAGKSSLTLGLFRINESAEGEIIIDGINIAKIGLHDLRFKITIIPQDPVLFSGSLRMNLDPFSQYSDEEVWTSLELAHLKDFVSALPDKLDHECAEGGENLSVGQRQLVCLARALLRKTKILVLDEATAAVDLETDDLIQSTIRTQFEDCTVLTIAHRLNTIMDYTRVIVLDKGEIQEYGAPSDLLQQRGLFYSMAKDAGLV
T2 sequence (P08183 whole entry): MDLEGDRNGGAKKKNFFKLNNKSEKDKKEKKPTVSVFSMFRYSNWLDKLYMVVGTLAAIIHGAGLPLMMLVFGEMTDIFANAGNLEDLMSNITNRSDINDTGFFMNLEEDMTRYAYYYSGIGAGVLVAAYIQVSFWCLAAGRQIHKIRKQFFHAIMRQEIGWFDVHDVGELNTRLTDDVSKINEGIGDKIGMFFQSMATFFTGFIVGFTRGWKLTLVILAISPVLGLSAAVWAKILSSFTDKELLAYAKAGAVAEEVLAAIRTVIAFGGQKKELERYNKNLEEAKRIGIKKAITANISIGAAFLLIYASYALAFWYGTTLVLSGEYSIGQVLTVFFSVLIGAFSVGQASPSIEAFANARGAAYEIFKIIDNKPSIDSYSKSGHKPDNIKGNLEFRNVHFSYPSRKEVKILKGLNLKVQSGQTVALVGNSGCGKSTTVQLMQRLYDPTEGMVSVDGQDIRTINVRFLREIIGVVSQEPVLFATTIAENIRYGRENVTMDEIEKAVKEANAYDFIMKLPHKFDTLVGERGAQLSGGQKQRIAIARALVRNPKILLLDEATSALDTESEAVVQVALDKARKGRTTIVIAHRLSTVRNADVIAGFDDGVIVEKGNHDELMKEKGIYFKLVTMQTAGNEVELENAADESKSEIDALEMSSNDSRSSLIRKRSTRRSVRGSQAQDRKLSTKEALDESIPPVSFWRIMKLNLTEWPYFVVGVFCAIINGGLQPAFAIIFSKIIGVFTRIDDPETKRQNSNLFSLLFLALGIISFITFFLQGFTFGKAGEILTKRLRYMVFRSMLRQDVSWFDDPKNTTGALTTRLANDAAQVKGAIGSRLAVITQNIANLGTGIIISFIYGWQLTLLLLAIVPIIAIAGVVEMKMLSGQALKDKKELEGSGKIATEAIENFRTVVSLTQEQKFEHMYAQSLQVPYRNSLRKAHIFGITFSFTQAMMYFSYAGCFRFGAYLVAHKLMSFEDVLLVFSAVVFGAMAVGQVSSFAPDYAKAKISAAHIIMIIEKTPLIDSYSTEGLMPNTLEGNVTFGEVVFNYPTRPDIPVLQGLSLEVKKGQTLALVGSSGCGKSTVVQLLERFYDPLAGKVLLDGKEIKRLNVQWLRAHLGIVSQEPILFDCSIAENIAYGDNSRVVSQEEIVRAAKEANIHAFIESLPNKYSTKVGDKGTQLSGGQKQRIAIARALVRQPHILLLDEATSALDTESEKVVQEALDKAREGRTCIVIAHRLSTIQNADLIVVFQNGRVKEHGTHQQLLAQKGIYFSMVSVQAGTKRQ

Molecule: O=C1c2c(O)ccc(O)c2C(=O)c2c(NCCNCCO)ccc(NCCNCCO)c21 [MX, mitoxantrone]
- MDR activity factor (MAF) based on MX extrusion (ABCG2 [1]): essentially similar results as obtained by using PG accumulation

Molecule: CC(=O)Oc1cc2c(cc1Cl)C1(OC(=O)c3cc(C(=O)Nc4cc5cccnc5c5ncccc45)ccc31)c1cc(Cl)c(OC(C)=O)cc1O2 [PGD, PhenGreen SK diacetate]
- applicability for calculating the MDR activity factor, compared with mitoxantrone (ABCB1; ABCB1 expressing PLB cells): similarly or better applicable than MX
- PG accumulation in ABCB1 expressing cells versus control parental cells (ABCB1; PLB and A431 cells, 0.1-5 μM PGD, EDTA-DPBS, 30 minutes at 37° C.): significantly lower levels of PG than their control parental cells
- effect of PG accumulation on cell growth (PLB, HEK or A431 cells): no measurable effect on the growth of the cells
- time in which the increase in cellular PG fluorescence saturated (ABCG2 [2]; PLB cells, 0.5 to 2.5 μM PGD in the media, 37° C.): less than 30 minutes
- effect of ABCG2 protein on accumulated PG fluorescence (ABCG2 [2]; PLB vs PLB-ABCG2 cells, low (below 1 μM) PGD, 30 minutes at 37° C., flow cytometry): major difference in the amount of the accumulated PG fluorescence
- applicability for calculating the MDR activity factor, compared with mitoxantrone (ABCC1; ABCC1 expressing HL-60 cells): similarly or better applicable than MX
- PG accumulation in ABCC1 expressing cells versus control parental cells (ABCC1; HL-60 and HEK cells, 0.1-5 μM PGD, EDTA-DPBS, 30 minutes at 37° C.): significantly lower levels of PG than their control parental cells
- transporter substrate activity in mononuclear cell populations ([3]; granulocytes, monocytes and lymphocytes, 1 μM PGD, 30 minutes at 37° C.): active substrate in each cell type
- MAF factor compared with other dyes ([3]; monocytes, ABCG2, ABCB1 and ABCC1 with selective inhibitors): higher MAF factor than Calcein AM and mitoxantrone for each of the transporters

- effect of non-functional catalytic mutant ABCG2-K86M on PG accumulation (ABCG2 [4]): no effect on PG accumulation
- cytoplasmic PG accumulation (confocal microscopy) (ABCG2 [5]): practically did not accumulate PG
- MDR activity factor (MAF) from PG accumulation in absence or presence of Ko143 (ABCG2 [2]; PLB cells expressing wild-type ABCG2): high activity level
Molecule: PhenGreen SK [PG]
